Experimental data from patent publication US20100298141A1, “SUBSTITUTED PYRIDINE N-OXIDE HERBICIDES” (E. I. DU PONT DE NEMOURS AND COMPANY, priority 2007, published 2010).

How the values were obtained:
[1] = tested on: wheat; assay: Test A pre-/postemergence greenhouse test; assay type: in vivo, Triticum aestivum; conditions: for Wheat plant response rating: 0 to 100 scale
How it was run: (§1)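 Planting was into mixed loam soil and sand; preemergence treatment followed as a directed soil spray. Concurrently, emerged plants (one- to two-leaf, 2–10 cm) received postemergence applications of identically formulated compound (non-phytotoxic solvent, surfactant). After approximately ten days under greenhouse conditions, injury was judged by eye against untreated plants.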

[2] = tested on: bermudagrass; assay: Test C pre-/postemergence test; assay type: in vivo, Cynodon dactylon
How it was run: (§2)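 Compounds in a non-phytotoxic solvent with surfactant applied preemergence to seeded pots and, at the same time, postemergence to plants 2–18 cm tall (1- to 4-leaf stage). Paddy tests: pots flooded to 3 cm, compound applied into the water, depth held throughout.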

[3] = tested on: wild oat; assay: Test C pre-/postemergence test; assay type: in vivo, Avena fatua
How it was run: as §2

[4] = tested on: Surinam grass; assay: Test C pre-/postemergence test; assay type: in vivo, Brachiaria decumbens
How it was run: as §2

[5] = tested on: barnyardgrass; assay: Test C flooded paddy test; assay type: in vivo, Echinochloa crus-galli; conditions: Flood
How it was run: (§3)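 Ratings were visual and made relative to untreated controls after 13 to 15 greenhouse days.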

[6] = tested on: velvetleaf; assay: Test C pre-/postemergence test; assay type: in vivo, Abutilon theophrasti
How it was run: as §2

[7] = tested on: giant foxtail; assay: Test C pre-/postemergence test; assay type: in vivo, Setaria faberii
How it was run: as §2

[8] = tested on: corn; assay: Test A pre-/postemergence greenhouse test; assay type: in vivo, Zea mays; conditions: for Corn plant response rating: 0 to 100 scale
How it was run: as §1

[9] = tested on: giant foxtail; assay: Test A pre-/postemergence greenhouse test; assay type: in vivo, Setaria faberi; conditions: for Foxtail, Giant plant response rating: 0 to 100 scale
How it was run: as §1

[10] = tested on: redroot pigweed; assay: Test A pre-/postemergence greenhouse test; assay type: in vivo, Amaranthus retroflexus; conditions: for Pigweed plant response rating: 0 to 100 scale
How it was run: as §1

[11] = tested on: lambsquarters; assay: Test C pre-/postemergence test; assay type: in vivo, Chenopodium album
How it was run: as §2

[12] = tested on: velvetleaf; assay: Test A pre-/postemergence greenhouse test; assay type: in vivo, Abutilon theophrasti; conditions: for Velvetleaf plant response rating: 0 to 100 scale
How it was run: as §1

[13] = tested on: johnsongrass; assay: Test C pre-/postemergence test; assay type: in vivo, Sorghum halepense
How it was run: as §2

[14] = tested on: duck salad; assay: Test C flooded paddy test; assay type: in vivo, Heteranthera limosa; conditions: Flood
How it was run: as §3

[15] = tested on: eastern black nightshade; assay: Test C pre-/postemergence test; assay type: in vivo, Solanum ptycanthum
How it was run: as §2

[16] = tested on: Goosegrass; assay: Test C pre-/postemergence test; assay type: in vivo, Eleusin indica
How it was run: as §2

[17] = tested on: rice; assay: Test C flooded paddy test; assay type: in vivo, Oryza sativa; conditions: Flood
How it was run: as §3

[18] = tested on: common ragweed; assay: Test C pre-/postemergence test; assay type: in vivo, Ambrosia elation
How it was run: as §2

[19] = Postemergence, 125 g ai/ha, 0 to 100 scale where 0 is no effect and 100 is complete control
[20] = Postemergence, 500 g ai/ha, 0 is no effect, 100 is complete control
[21] = Preemergence, 125 g ai/ha, 0 no effect, 100 complete control
[22] = Preemergence, 500 g ai/ha, 0 no effect, 100 complete control
[23] = 125 g ai/ha, preemergence, scale 0 (no effect) to 100 (complete control)
[24] = Preemergence, 31 g ai/ha, scale 0 to 100 (0 no effect, 100 complete control)
[25] = preemergence, 250 g ai/ha, scale 0 (no effect) to 100 (complete control)
[26] = 62 g ai/ha, Preemergence, scale 0 to 100
[27] = 62 g ai/ha, scale 0 to 100 (0 no effect, 100 complete control)
[28] = 250 g ai/ha, scale 0 to 100, 0 no effect, 100 complete control, 13 to 15 days

CCc1cc[n+]([O-])c([S+]([O-])Cc2c(C(F)(F)F)nn(C)c2OC(F)F)c1 (stereo not drawn) [Compound 101]
70: Wheat plant response rating [1, 21] | Plant response rating, Barnyardgrass [5, 28] | Plant response rating, Foxtail, Giant [7, 24] | Corn plant response rating [8, 20] | Plant response rating, Pigweed [10, 19] | Plant response rating, Velvetleaf [12, 19] | Plant response rating, Johnsongrass [13, 24]
50: Plant response rating, Wheat [1, 19] | Plant response rating, Oat, Wild [3, 24] | Corn plant response rating [8, 21]
90: Oat, Wild plant response rating [3, 26] | Oat, Wild plant response rating [3, 23] | Corn plant response rating [8, 22] | Foxtail, Giant plant response rating [9, 20] | Pigweed plant response rating [10, 20] | Velvetleaf plant response rating [12, 20]
100: Wheat plant response rating [1, 22] | Bermudagrass plant response rating [2, 23] | Bermudagrass plant response rating [2, 25] | Foxtail, Giant plant response rating [9, 21] | Foxtail, Giant plant response rating [9, 22] | Pigweed plant response rating [10, 21] | Pigweed plant response rating [10, 22] | Lambsquarters plant response rating [11, 26] | Lambsquarters plant response rating [11, 23] | Lambsquarters plant response rating [11, 25] | Velvetleaf plant response rating [12, 22] | Johnsongrass plant response rating [13, 25] | Nightshade plant response rating [15, 25] | Goosegrass plant response rating [16, 23] | Goosegrass plant response rating [16, 25] | Ragweed plant response rating [18, 23] | Ragweed plant response rating [18, 25]
75: Plant response rating, Rice [17, 28]
30: Velvetleaf plant response rating [6, 26]
95: Surinam Grass plant response rating [4, 23] | Velvetleaf plant response rating [6, 25] | Foxtail, Giant plant response rating [7, 23] | Johnsongrass plant response rating [13, 23] | Nightshade plant response rating [15, 23]
55: Plant response rating, Bermudagrass [2, 24]
40: Velvetleaf plant response rating [6, 23]
85: Bermudagrass plant response rating ([2]; 62 g ai/ha, Preemergence, scale 0 to 100 (0 no effect, 100 complete control)) | Johnsongrass plant response rating [13, 26] | Goosegrass plant response rating [16, 26]
0: Plant response rating, Barnyardgrass [5, 27] | Plant response rating, Velvetleaf [6, 24] | Plant response rating, Ducksalad [14, 27] | Plant response rating, Rice [17, 27] | Plant response rating, Ragweed [18, 24]
10: Plant response rating, Nightshade [15, 24] | Ragweed plant response rating [18, 26]
80: Surinam Grass plant response rating [4, 26] | Foxtail, Giant plant response rating [7, 26] | Plant response rating, Foxtail, Giant [9, 19] | Plant response rating, Lambsquarters [11, 24] | Velvetleaf plant response rating [12, 21] | Plant response rating, Ducksalad [14, 28] | Nightshade plant response rating [15, 26] | Plant response rating, Goosegrass [16, 24]
60: Wheat plant response rating [1, 20] | Plant response rating, Surinam Grass [4, 24] | Plant response rating, Corn [8, 19]
98: Oat, Wild plant response rating [3, 25] | Surinam Grass plant response rating [4, 25] | Foxtail, Giant plant response rating [7, 25]
